Among the data in ChEMBL document CHEMBL1134213, “Synthesis and SAR of benzamidine factor Xa inhibitors containing a vicinally-substituted heterocyclic core” (Bioorg Med Chem Lett, 2001) are Ki and ID50 values, retold here.

Bounds are passed on as bounds.

One assay has as its target Prothrombin (Homo sapiens, UniProt P00734). As to the kind of experiment: Binding affinity towards human thrombin.
The target of another assay is Trypsin (Homo sapiens, UniProt P07477+P07478+P35030). The assay is described as follows: Binding affinity towards human trypsin. Type of assay: protein assay.
Assay [1] has as its target Coagulation factor X (Homo sapiens, UniProt P00742). The assay is described as follows: Binding affinity towards human Serine protease FXa.
Another assay is filed under the species Oryctolagus cuniculus. The assay is described as follows: Antithrombotic efficacy was determined in a rabbit (A-V) shunt model. It counts as functional.
Assay [2] concerns the target T1, Coagulation factor X (Oryctolagus cuniculus, UniProt O19045).
T1 sequence (O19045 whole entry): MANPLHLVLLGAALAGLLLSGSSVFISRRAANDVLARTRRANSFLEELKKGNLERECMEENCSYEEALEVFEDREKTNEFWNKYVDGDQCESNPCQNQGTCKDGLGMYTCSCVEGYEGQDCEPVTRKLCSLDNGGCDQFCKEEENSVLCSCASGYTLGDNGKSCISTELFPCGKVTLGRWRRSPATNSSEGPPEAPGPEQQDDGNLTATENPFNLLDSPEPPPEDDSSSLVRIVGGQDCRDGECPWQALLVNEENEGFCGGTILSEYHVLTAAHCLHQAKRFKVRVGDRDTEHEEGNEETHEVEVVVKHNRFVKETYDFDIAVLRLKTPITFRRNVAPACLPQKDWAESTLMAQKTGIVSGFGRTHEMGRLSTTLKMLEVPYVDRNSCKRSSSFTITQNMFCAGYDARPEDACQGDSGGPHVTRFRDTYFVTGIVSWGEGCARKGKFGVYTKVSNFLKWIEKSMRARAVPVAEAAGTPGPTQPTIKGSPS
As to the kind of experiment: Binding affinity towards Rabbit Coagulation factor X in a rabbit arterio-venous (A-V) shunt model.

Coagulation factor X (Homo sapiens, UniProt P00742), sequence (P00742 41-179 limits assumed): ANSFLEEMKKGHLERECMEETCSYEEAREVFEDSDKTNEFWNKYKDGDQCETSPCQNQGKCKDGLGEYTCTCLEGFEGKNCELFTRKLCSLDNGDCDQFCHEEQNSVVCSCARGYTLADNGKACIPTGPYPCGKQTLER
Coagulation factor X (Homo sapiens, UniProt P00742), sequence (P00742 235-488 limits assumed): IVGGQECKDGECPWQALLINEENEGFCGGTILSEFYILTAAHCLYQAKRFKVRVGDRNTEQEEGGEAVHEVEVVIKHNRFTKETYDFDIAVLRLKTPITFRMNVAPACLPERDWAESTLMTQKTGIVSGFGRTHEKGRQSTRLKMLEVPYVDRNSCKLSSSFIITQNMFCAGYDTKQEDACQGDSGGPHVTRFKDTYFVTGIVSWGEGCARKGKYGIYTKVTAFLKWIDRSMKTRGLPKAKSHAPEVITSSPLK

`N=C(N)c1cccc(-n2ccnc2C(=O)Nc2ccc(-c3ccccc3S(N)(=O)=O)cc2)c1.O=C(O)C(F)(F)F`: the inhibitory constant (Ki) at Prothrombin stood at 800 nM; on Trypsin, 26 nM; at Coagulation factor X [1], 0.33 nM.

Take `N=C(N)c1cccc(-n2cccc2C(=O)Nc2ccc(-c3ccccc3S(N)(=O)=O)cc2)c1`: the Ki on Trypsin stood at 56 nM.

For the compound `Cc1nc(C(=O)Nc2ccc(-c3ccccc3S(N)(=O)=O)cc2)c(-c2cccc(C(=N)N)c2)[nH]1.O=C(O)C(F)(F)F`, the figures for the Ki on Prothrombin, on Trypsin and on Coagulation factor X [1] were > 21000 nM, 1100 nM and 6 nM, respectively.

For `N=C(N)c1cccc(-n2nncc2C(=O)Nc2ccc(-c3ccccc3S(N)(=O)=O)cc2)c1.O=C(O)C(F)(F)F`, the figures for the inhibition constant (Ki) at Prothrombin, on Trypsin and on Coagulation factor X [1] were 300 nM, 3.4 nM and 0.023 nM, respectively.

Turning to `Cc1nc(-c2cccc(C(=N)N)c2)c(C(=O)Nc2ccc(-c3ccccc3S(N)(=O)=O)cc2)o1.O=C(O)C(F)(F)F`, the Ki on Prothrombin amounted to 3600 nM; on Trypsin, 190 nM; at Coagulation factor X [1], 0.4 nM.

Regarding `N=C(N)c1cccc(-c2[nH]c(O)nc2C(=O)Nc2ccc(-c3ccccc3S(N)(=O)=O)cc2)c1.O=C(O)C(F)(F)F`, the inhibition constant Ki amounted to 6000 nM on Prothrombin, 390 nM at Trypsin and 2.3 nM on Coagulation factor X [1].

Regarding `Cn1cc(C(=O)Nc2ccc(-c3ccccc3S(N)(=O)=O)cc2)c(-c2cccc(C(=N)N)c2)n1.O=C(O)C(F)(F)F`, the Ki at Prothrombin amounted to 2640 nM; at Trypsin, 220 nM; on Coagulation factor X [1] it was 0.2 nM.

Consider `N=C(N)c1cccc(-c2ncsc2C(=O)Nc2ccc(-c3ccccc3S(N)(=O)=O)cc2)c1.O=C(O)C(F)(F)F`, for which the Ki was > 6300 nM on Prothrombin, 97 nM on Trypsin and 0.82 nM on Coagulation factor X [1].

Regarding `N=C(N)c1cccc(-c2ncccc2C(=O)Nc2ccc(-c3ccccc3S(N)(=O)=O)cc2)c1.O=C(O)C(F)(F)F`, the Ki stood at 15400 nM at Prothrombin, 260 nM on Trypsin and 1 nM on Coagulation factor X [1].

With `N=C(N)c1cccc(-c2ocnc2C(=O)Nc2ccc(-c3ccccc3S(N)(=O)=O)cc2)c1.O=C(O)C(F)(F)F`, the inhibition constant (Ki) stood at 3300 nM on Prothrombin, 261 nM at Trypsin and 2.5 nM on Coagulation factor X [1]. In addition, the ID50 in the assay listed under Oryctolagus cuniculus came to 0.54 µM/h/kg.

As for `N=C(N)c1cccc(-c2ccccc2C(=O)Nc2ccc(-c3ccccc3S(N)(=O)=O)cc2)c1.O=C(O)C(F)(F)F`, the results for the Ki on Prothrombin, on Trypsin and at Coagulation factor X [1] were > 6300 nM, 780 nM and 8.2 nM, respectively.

Consider `Cc1cc(C(=O)Nc2ccc(-c3ccccc3S(N)(=O)=O)cc2)n(-c2cccc(C(=N)N)c2)n1.O=C(O)C(F)(F)F`, for which, in the assay filed under Oryctolagus cuniculus, the ID50 was found to be 0.023 µM/h/kg.

Turning to `Cc1nc(-c2cccc(C(=N)N)c2)c(C(=O)Nc2ccc(-c3ccccc3S(N)(=O)=O)cc2)s1.O=C(O)C(F)(F)F`, the Ki at Prothrombin worked out at 1250 nM; on Trypsin, 60 nM; at Coagulation factor X [1] it was 0.06 nM; on Coagulation factor X [2], 0.08 nM. Moreover, in the assay listed under Oryctolagus cuniculus, the ID50 was 0.5 µM/h/kg.

On Trypsin, `N=C(N)c1cccc(-c2nocc2C(=O)Nc2ccc(-c3ccccc3S(N)(=O)=O)cc2)c1.O=C(O)C(F)(F)F` showed a Ki of 21 nM. This compound also returned an ID50 in the assay filed under Oryctolagus cuniculus of 0.31 µM/h/kg.

With `N=C(N)c1cccc(-n2nccc2C(=O)Nc2ccc(-c3ccccc3S(N)(=O)=O)cc2)c1`, the affinity on Trypsin, expressed as Ki, was 15 nM. That is a double-digit nanomolar value.

Take `N=C(N)c1cccc(-n2nnnc2C(=O)Nc2ccc(-c3ccccc3S(N)(=O)=O)cc2)c1.O=C(O)C(F)(F)F`: the Ki was 300 nM at Prothrombin, 6.4 nM on Trypsin and 0.037 nM at Coagulation factor X [1]. Further, the ID50 in the assay filed under Oryctolagus cuniculus worked out at 0.13 µM/h/kg.

For the compound `Cc1cn(-c2cccc(C(=N)N)c2)c(C(=O)Nc2ccc(-c3ccccc3S(N)(=O)=O)cc2)n1.O=C(O)C(F)(F)F`, the Ki worked out at 600 nM at Prothrombin, 27 nM on Trypsin and 0.3 nM on Coagulation factor X [1].

For `N=C(N)c1cccc(-n2cncc2C(=O)Nc2ccc(-c3ccccc3S(N)(=O)=O)cc2)c1.O=C(O)C(F)(F)F`, the Ki at Prothrombin stood at 3200 nM; on Trypsin it was 58 nM; on Coagulation factor X [1], 1.1 nM.
